Measured values from publication PMC7285812 (Drug Design, Development and Therapy, 2020).
“And” between values parts separate entries of the source, which are not always exact repeats. Equal entries are not always repeated.

Columns and labels:
[1] = target: α-glucosidase from Saccharomyces cerevisiae (Saccharomyces cerevisiae, UniProt P53341); test: α-Glucosidase inhibition, chromogenic assay; type: biochemical; conditions: read-out: (%) Inhibition α-glucosidase
α-glucosidase = α-glucosidase (Saccharomyces cerevisiae, UniProt P53341); test: Michaelis–Menten kinetics of α-glucosidase inhibition; type: biochemical; conditions: Michaelis–Menten / Lineweaver–Burk
[2] = DPPH radicals scavenging assay
[3] = ABTS free radicals scavenging assay

α-glucosidase from Saccharomyces cerevisiae, sequence (P53341 whole entry): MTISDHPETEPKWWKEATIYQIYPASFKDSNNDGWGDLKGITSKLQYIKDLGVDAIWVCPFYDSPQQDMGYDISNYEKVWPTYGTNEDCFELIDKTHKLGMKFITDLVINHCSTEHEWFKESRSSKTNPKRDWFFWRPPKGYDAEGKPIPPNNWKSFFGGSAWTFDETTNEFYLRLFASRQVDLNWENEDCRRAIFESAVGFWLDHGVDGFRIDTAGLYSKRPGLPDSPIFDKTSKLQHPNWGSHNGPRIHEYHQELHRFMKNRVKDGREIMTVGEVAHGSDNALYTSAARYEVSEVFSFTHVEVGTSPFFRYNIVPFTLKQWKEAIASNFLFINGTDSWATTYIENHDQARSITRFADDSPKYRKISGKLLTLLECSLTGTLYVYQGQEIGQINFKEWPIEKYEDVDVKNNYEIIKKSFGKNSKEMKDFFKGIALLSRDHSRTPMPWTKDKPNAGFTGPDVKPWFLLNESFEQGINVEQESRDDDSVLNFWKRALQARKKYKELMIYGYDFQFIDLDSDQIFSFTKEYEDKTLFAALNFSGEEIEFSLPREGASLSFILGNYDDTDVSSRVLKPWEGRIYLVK
α-glucosidase, sequence (P53341 whole entry): as above

## C[C@H]1O[C@H](O[C@H]2[C@H](O)[C@@H](O)[C@@H](O[C@H]3[C@H](O)[C@@H](O)C(O)O[C@@H]3CO)O[C@@H]2CO)[C@H](O)[C@@H](O)[C@@H]1N[C@H]1C=C(CO)[C@@H](O)[C@H](O)[C@H]1O (stereo partly drawn) [Acarbose (Std), acarbose, reference compound]
[1]
  inhibition at 15.62 µg/mL: 41.8 ± 0.37%
  inhibition at 31.25 µg/mL: 49.9 ± 0.48%
  inhibition at 62.5 µg/mL: 57.7 ± 0.88%
  inhibition at 125 µg/mL: 63.9 ± 1.27%
  inhibition at 250 µg/mL: 72 ± 2.01%
  inhibition at 500 µg/mL: 75.1 ± 1.04%
  inhibition at 1000 µg/mL: 83.6 ± 1.67%
α-glucosidase
  Vmax, α-glucosidase: 2.639 µg/min and 2.616 µg/min

## O=C1O[C@H]([C@@H](O)CO)C(O)=C1O [Ascorbic acid (Std.), ascorbic acid, reference compound]
[2]; 15.62 μg/mL
  (%) Inhibition DPPH: 48.70 ± 0.90%
[2]; 31.25 μg/mL
  (%) Inhibition DPPH: 55.23 ± 1.21%
[2]; 62.5 μg/mL
  (%) Inhibition DPPH: 61.40 ± 1.85%
[2]; 125 μg/mL
  (%) Inhibition DPPH: 69.66 ± 1.36%
[2]; 250 μg/mL
  (%) Inhibition DPPH: 77.00 ± 1.73%
[2]; 500 μg/mL
  (%) Inhibition DPPH: 83.96 ± 1.91%
[2]; 1000 μg/mL
  (%) Inhibition DPPH: 89.00 ± 0.57%
[2]; read-out: IC50 DPPH free radicals scavenging
  IC50: 96.5 µM
[3]; 15.62 μg/mL
  (%) Inhibition ABTS: 46.00±0.58%
[3]; 31.25 μg/mL
  (%) Inhibition ABTS: 52.67±0.89%
[3]; 62.5 μg/mL
  (%) Inhibition ABTS: 58.00±1.15%
[3]; 125 μg/mL
  (%) Inhibition ABTS: 67.00±0.00%
[3]; 250 μg/mL
  (%) Inhibition ABTS: 75.03±0.23%
[3]; 500 μg/mL
  (%) Inhibition ABTS: 81.70±1.60%
[3]; 1000 μg/mL
  (%) Inhibition ABTS: 87.73±0.78%
[3]; read-out: IC50 ABTS free radicals scavenging
  IC50: 85.2 µM
